This is an account of results in patent publication US8673892B2, “Phenyl bicyclic methyl azetidine derivatives as sphingosine-1 phosphate receptors modulators” (Allergan, Inc., priority 2011, dated 2014).

This test has as its target T1, human S1P1 receptor (Homo sapiens, UniProt P21453).
T1 construct: expressed in transfected cells; membranes used
Put plainly: GTP γ35S binding assay for S1P1 activity. In kind it is biochemical. As to conditions: membranes of cells stably expressing the S1P1 receptor; agonist-induced GTP γ35S binding; read-out: EC50 at the S1P1 receptor from GTP γ35S. Here is the method: Compounds were synthesized and tested for S1P1 activity using the GTP γ^35S binding assay. These compounds may be assessed for their ability to activate or block activation of the human S1P1 receptor in cells stably expressing the S1P1 receptor.
GTP γ^35S binding was measured in the medium containing (mM) HEPES 25, pH 7.4, MgCl2 10, NaCl 100, dithitothreitol 0.5, digitonin 0.003%, 0.2 nM GTP γ^35S, and 5 μg membrane protein in a volume of 150 μl. Test compounds were included in the concentration range from 0.08 to 5,000 nM unless indicated otherwise. Membranes were incubated with 100 μM 5′-adenylylimmidodiphosphate for 30 min, and subsequently with 10 μM GDP for 10 min on ice. Drug solutions and membrane were mixed, and then reactions were initiated by adding GTP γ^35S and continued for 30 min at 25° C. Reaction mixtures were filtered over Whatman GF/B filters under vacuum, and washed three times with 3 mL of ice-cold buffer (HEPES 25, pH7.4, MgCl2 10 and NaCl 100). Filters were dried and mixed with scintillant, and counted for ^35S activity using a β-counter. Agonist-induced GTP γ^35S binding was obtained by subtracting that in the absence of agonist. Binding data were analyzed using a non-linear regression method. In case of antagonist assay, the reaction mixture contained 10 nM […] in the presence of test antagonist at concentrations ranging from 0.08 to 5000 nM.
A general note: GTPγS is a poorly hydrolysed GTP analogue; its binding reports G protein activation.

T1 sequence (P21453 whole entry): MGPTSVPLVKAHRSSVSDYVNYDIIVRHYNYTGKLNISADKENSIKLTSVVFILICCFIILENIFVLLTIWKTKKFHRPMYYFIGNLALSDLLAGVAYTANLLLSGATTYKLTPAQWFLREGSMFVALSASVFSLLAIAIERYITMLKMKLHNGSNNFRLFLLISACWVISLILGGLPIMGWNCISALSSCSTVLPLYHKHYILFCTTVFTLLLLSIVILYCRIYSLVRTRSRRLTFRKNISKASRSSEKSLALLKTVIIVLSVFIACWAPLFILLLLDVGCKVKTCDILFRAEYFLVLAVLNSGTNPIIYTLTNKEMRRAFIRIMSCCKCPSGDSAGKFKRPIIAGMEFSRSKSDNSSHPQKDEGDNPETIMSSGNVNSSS

What is called EC50 is the concentration needed to bring the measured effect to its halfway point. Turning to `CCCCCCc1ccc(-c2ccc(CN3CC(C(=O)O)C3)c3ncccc23)cc1` [Compound 1, 1-{[5-(4-hexylphenyl)quinolin-8-yl]methyl}azetidine-3-carboxylic acid], the EC50 came to 1.55 µM.
